According to patent US20080063642A1, “Methods of using (+)-1,4-dihydro-7-[(3S,4S)-3-methoxy-4-(methylamino)-1-pyrrolidinyl]-4-oxo-1-(2-thiazolyl)-1,8-naphthyridine-3-carboxylic acid for treatment of certain hematologic disorders” (priority 2006, published 2008):
Converted amounts (≈) assume the structure as drawn. Marks after values point to notes of the source that are not given here.

Assays:
[1] = tested on: HL-60 (promyelocytic leukemia); test: MTT cell viability assay, HL-60; type: cell-based; conditions: Homo sapiens, MTT after 72 hours
Procedure: (§1) The following cell lines were used in this assay: HL-60 (promyelocytic leukemia); Jurkat (T cell leukemia); CCRF-CEM (lymphoblastic leukemia); CEM/C2 (camptothecan resistant derivative of CCRF-CEM).
(§2) Cells were seeded in 96 wells plates at 3000 cells per well and incubated for 16 hours. Compound dilutions were performed in DMSO from 10 mM with 3 fold dilutions. Titrations were diluted 1:100 in media to achieve final compound concentrations. The 96 well plates were aspirated and compound dilutions in media were added ([…]). MTT analysis was carried out after 72 hours of incubation at 37° C. Briefly, […] of MTT solution was added to each well. Cells were incubated at 37° C. for 1-2 hours. Cells were lysed with the addition of […] cell lysis buffer and MTT was solubilized overnight at 37° C. Plates were read on a spectromax machine with an absorbance measurement at […]. IC50's were calculated (data provided in Table 1) using regression analysis within GraphPad Prism.

[2] = tested on: CCRF-CEM acute lymphoblastic leukemia tumor; test: CCRF-CEM xenograft model; type: in vivo
Procedure: CCRF-CEM acute lymphoblastic leukemia tumor lobes of 2-3 mm square were transplanted subcutaneously into nude mice. Tumors were allowed to grow to approximately 8-20 mm in diameter. […] Acceptable toxicity was defined as a mean group weight loss of 30% or less and not more than one toxic death among 6 treated animals. Anti-tumor activities of the drugs were assessed 20 or 21 days after the start of administration. FIGS. 1-2 and Table 2 provides data for tumor inhibition rate (IR) and survival ratio in the CCRF-CEM and LM3-Jck xenograft models.

[3] = tested on: LM3-Jck human malignant lymphoma tumor; test: LM3-Jck xenograft model; type: in vivo; conditions: LM3-JcK
Procedure: LM3-Jck human malignant lymphoma tumor lobes (2-3 mm square) were transplanted subcutaneously into nude mice. Tumors were allowed to grow to approximately 7-14 mm in diameter. […] Acceptable toxicity was defined as a mean group weight loss of 30% or less and not more than one toxic death among 6 treated animals. Anti-tumor activities of the drugs were assessed 21 days after the start of administration.

[4] = tested on: CCRF-CEM (lymphoblastic leukemia); test: MTT cell viability assay, CCRF-CEM; type: cell-based; conditions: Homo sapiens, MTT after 72 hours
Procedure: as §1, §2

[5] = tested on: CEM/C2 (camptothecan resistant derivative of CCRF-CEM); test: MTT cell viability assay, CEM/C2; type: cell-based; conditions: Homo sapiens, MTT after 72 hours
Procedure: as §1, §2

[6] = tested on: peripheral neutrophils, white blood cells, platelets; test: Combination dosing SNS-595 and Ara-C (Example 5): peripheral cytology; type: in vivo, nu/nu mice
Procedure: At various time points described in Table 5, mice were euthanized by CO2 asphyxiation in accordance to Institutional Animal Care and Use Committee (IACUC) guidelines. Blood was collected through cardiac tap and transferred to EDTA tubes. The analysis of murine blood CBC and differential counts for samples in these tubes was conducted (at Quality Clinical Labs, Moutainview). Statistical significance was determined by one-tailed student t-test, using Welch's correction for unequal variances.

femoral bone marrow = test: Combination dosing SNS-595 and Ara-C (Example 5): femoral bone marrow cellularity; type: in vivo, nu/nu mice
Description: Femurs were harvested for histological evaluation. The femur was placed in Streck fixative, paraffin embedded, sectioned, transferred to slides, and H&E stained (at BioPathology Sciences). Immunohistochemical slides were processed and analyzed for percent cellularity of intact bone marrow.

bone marrow = test: Monotherapy and combination with Ara-C (Example 6): bone marrow total cellularity; type: in vivo, Female CD-1 mice; conditions: for Total Cellularity (Avg) Exp #1: two days after completion of treatment
Procedure: Blood was analyzed at Quality Control Labs (Mountain View, Calif.) for complete blood count and differential count. Bone marrow smears from femurs on Day 6 and Day 12 were prepared and geimsa stained for differential counts. Femurs were also placed in Streck fixative, processed, sectioned and H&E stained. Femur and bone marrow smears were analyzed at BioPathology Sciences (South San Francisco, Calif.) for total cellularity and differential count. […] The compounds were administered on Day 0 and Day 4.

in vivo = conditions: CD-1, mouse
[7] = Combination dosing SNS-595 and Ara-C (Example 5): body weight changes
Procedure: The effects of dosing were studied on changes in body weight, peripheral cytology, and femoral bone marrow cellularity over time as described below.
Before beginning the study, all animals were allowed to acclimatize for 3 days from shipping related stress and the health of the mice was assessed daily by observation. Purified water (reverse osmosis) and irradiated food (PicoLab Rodent Diet 20, #5053; Dean's Animal Feeds, San Carlos, Calif.) were provided ad libitum, and the animals were kept on a 12 hour light and dark cycle.

[8] = CCRF-CEM, 100 mg/kg q4d × 3, IV
[9] = Ara-C 20, 40 and 60 mg/kg tid q4d ×2
[10] = Group 5: Ara-C 20 mg/kg SC tid q4d × 2
[11] = Group 6: Ara-C 40 mg/kg SC tid q4d × 2
[12] = Group 7: Ara-C 60 mg/kg SC tid q4d × 2

## COc1cc([C@@H]2c3cc4c(cc3[C@@H](O[C@@H]3O[C@@H]5CO[C@@H](C)O[C@H]5[C@H](O)[C@H]3O)[C@H]3COC(=O)[C@H]23)OCO4)cc(OC)c1O [Etoposide]
[1]
  IC50: 0.136 µg/mL (≈ 0.231 µM)
[2]; CCRF-CEM, 12 mg/kg qd × 5, IV
  IR (%) tumor inhibition rate: 28.3%
[2]; nude, mouse, in vivo, iv, 12 mg/kg
  Survival Ratio: 6/6
[3]; 12 mg/kg qd × 5, IV
  IR (%) tumor inhibition rate: 3.0%

## CCc1c2c(nc3ccc(OC(=O)N4CCC(N5CCCCC5)CC4)cc13)-c1cc3c(c(=O)n1C2)COC(=O)[C@]3(O)CC [Irinotecan]
[1]
  IC50: 0.905 µg/mL (≈ 1.54 µM)
[4]
  IC50: 0.479 µg/mL (≈ 0.816 µM)
[5]
  IC50: 44.4 µg/mL (≈ 75.7 µM)
[2]; [8]
  IR (%) tumor inhibition rate: 99.7* %
  Survival Ratio: 5/6
[3]; 100 mg/kg q4d × 3, IV
  IR (%) tumor inhibition rate: 97.7* %
  Survival Ratio: 6/6

## COc1cccc2c1C(=O)c1c(O)c3c(c(O)c1C2=O)C[C@@](O)(C(=O)CO)C[C@@H]3O[C@H]1C[C@H](N)[C@H](O)[C@H](C)O1 [Doxorubicin]
[1]
  IC50: 0.024 µg/mL (≈ 0.0442 µM)
[4]
  IC50: 0.003 µg/mL (≈ 0.00552 µM)
[5]
  IC50: 0.017 µg/mL (≈ 0.0313 µM)
[2]; CCRF-CEM, 12 mg/kg q7d × 3, IV
  IR (%) tumor inhibition rate: 50.3* %
[3]; 12 mg/kg q7d × 3, IV
  IR (%) tumor inhibition rate: 57.2* %

## Nc1ccn([C@@H]2O[C@H](CO)[C@@H](O)[C@@H]2O)c(=O)n1 [Ara-C, cytarabine]
[6]; Ara-C 20 mg/kg tid q4d ×2
  day of nadir of number of neutrophils: 6 days
[6]; Ara-C 40 mg/kg tid q4d ×2
  day of nadir of platelets: 8 days
[6]; Ara-C 60 mg/kg, day 8
  number of white blood cells versus vehicle group: significantly lower than the vehicle group
[6]; [9]
  circulating white blood cells, dose response: dose-dependent reduction
[6]; Ara-C 20 and 60 mg/kg tid q4d ×2
  day of nadir of platelets: 6 days
[6]; Ara-C 40 and 60 mg/kg tid q4d ×2
  day of nadir of number of neutrophils: 8 days
[6]; Ara-C all dose levels
  day by which neutrophils returned to normal levels: ≤ 12 days
  day by which platelets returned to normal levels: ≤ 12 days
  recovery of white blood cells: failed to return to normal levels by day 18
[6]; Ara-C all dose levels, day 6 and day 8
  number of platelets versus vehicle group: significantly lower than the vehicle group
[6]; Ara-C all dose levels, day 8
  number of neutrophils versus vehicle group: significantly lower than the vehicle group
Femoral bone marrow; Ara-C 20 mg/kg SC three times a day, single agent
  reduction in cellularity: 12%
Femoral bone marrow; Ara-C single agent 20, 40, 60 mg/kg
  bone marrow cellularity, dose response: No dose dependent reduction
Femoral bone marrow; Day 6, Ara-C 20 mg/kg tid q4d ×2 SC, Animal #83
  total cellularity, femur cross section of representative animal: 90%
Femoral bone marrow; Day 6, Ara-C 40 mg/kg tid q4d ×2 SC, Animal #103
  total cellularity, femur cross section of representative animal: 90%
Femoral bone marrow; Day 6, Ara-C 60 mg/kg tid q4d ×2 SC, Animal #122
  total cellularity, femur cross section of representative animal: 50%
Femoral bone marrow; Day 12, Ara-C 60 mg/kg tid q4d ×2 SC, Animal #134
  total cellularity, femur cross section of representative animal: 50%
Femoral bone marrow; [10]
  Average Total Cellularity Day 6: 88%
Femoral bone marrow; [11]
  Average Total Cellularity Day 6: 90%
Femoral bone marrow; [12]
  Average Total Cellularity Day 6: 58%
  Average Total Cellularity Day 12: 99%
Bone marrow; Ara-C 20 mg/kg tid q4d ×2
  Total Cellularity (Avg) Exp #2: 92%
Bone marrow; Ara-C 20 mg/kg tid q4d × 2
  Total Cellularity (Avg) Exp #1: 88%
Bone marrow; Ara-C 60 mg/kg tid q4d × 2
  Total Cellularity (Avg) Exp #2: 54%
  Total Cellularity (Avg) Exp #1: 58%
In vivo
  MTD: 60 mg/kg
[7]; [9]
  day of maximum body weight loss: 7 days
  maximum body weight loss: ≤ 2%
[7]; [10]
  % of Body Wt Nadir: −0.3%
  Day of Body Wt Nadir: 7 days
[7]; [11]
  % of Body Wt Nadir: 0%
  Day of Body Wt Nadir: 0 days
[7]; [12]
  % of Body Wt Nadir: −1.7%
  Day of Body Wt Nadir: 7 days
